Organism: Rattus norvegicus
Assay: Open TG-GATES - Regimen: Single
Format: toxicity, organism-based, Sprague-Dawley
Design: regimen Single, gender Male, age 6 weeks
Conditions: in vivo, po, 25 mg/kg, route gavage, dose level Middle; for APTT / Bas / Eos / Fbg / Hb / Ht / Lym / MCH / MCHC / MCV / Mono / Neu / PT / Plat / RBC / Ret / WBC: tissue Blood; for KIDNEY_L / KIDNEY_R / KIDNEY_TOTAL: tissue Kidney; for LIVER: tissue Liver; for A/G / ALP / ALT / AST / BUN / CRE / Ca / Cl / DBIL / GLC / IP / K / LDH / Na / PL / RALB / TBIL / TC / TG / TP / gamma-GTP: tissue Plasma

NC1=NC(=O)C(c2ccccc2)O1 (stereo unspecified) [PEMOLINE]
TERMINAL_BW (3 h): 210.1 g | APTT (3 h): 15.6 s | Bas (3 h): 0% | Eos (3 h): 1% | Fbg (3 h): 280.4 mg/dL | Hb (3 h): 13.5 g/dL | Ht (3 h): 39.8% | Lym (3 h): 74.2% | MCH (3 h): 21.3 pg | MCHC (3 h): 33.8% | MCV (3 h): 62.9 fL | Mono (3 h): 3.8% | Neu (3 h): 20.6% | PT (3 h): 13.1 s | Plat (3 h): 115 x10_4/uL | RBC (3 h): 633.2 x10_4/ul | Ret (3 h): 8.8% | WBC (3 h): 86.4 x10_2/uL | KIDNEY_L (3 h): 0.9 g | KIDNEY_R (3 h): 0.9 g | KIDNEY_TOTAL (3 h): 1.8 g | LIVER (3 h): 9.3 g | A/G (3 h): 1 | ALP (3 h): 1568.2 IU/L | ALT (3 h): 42.6 IU/L | AST (3 h): 86 IU/L | BUN (3 h): 8.2 mg/dL | CRE (3 h): 0.2 mg/dL | Ca (3 h): 10.5 mg/dL | Cl (3 h): 106.4 meq/L | DBIL (3 h): 0.01 mg/dL | GLC (3 h): 185.2 mg/dL | IP (3 h): 8.5 mg/dL | K (3 h): 3.8 meq/L | LDH (3 h): 104 IU/L | Na (3 h): 140.4 meq/L | PL (3 h): 122.4 mg/dL | RALB (3 h): 2.7 g/dL | TBIL (3 h): 0.044 mg/dL | TC (3 h): 72.4 mg/dL | TG (3 h): 39.6 mg/dL | TP (3 h): 5.4 g/dL | gamma-GTP (3 h): 1.4 IU/L | TERMINAL_BW (6 h): 209.6 g | APTT (6 h): 17.7 s | Bas (6 h): 0.2% | Eos (6 h): 1% | Fbg (6 h): 316.4 mg/dL | Hb (6 h): 13.6 g/dL | Ht (6 h): 40% | Lym (6 h): 72.2% | MCH (6 h): 21.7 pg | MCHC (6 h): 34% | MCV (6 h): 63.7 fL | Mono (6 h): 2.6% | Neu (6 h): 23.6% | PT (6 h): 13.4 s | Plat (6 h): 122.6 x10_4/uL | RBC (6 h): 629.6 x10_4/ul | Ret (6 h): 9.8% | WBC (6 h): 101.7 x10_2/uL | KIDNEY_L (6 h): 0.9 g | KIDNEY_R (6 h): 0.9 g | KIDNEY_TOTAL (6 h): 1.8 g | LIVER (6 h): 8.2 g | A/G (6 h): 1 | ALP (6 h): 1568 IU/L | ALT (6 h): 44 IU/L | AST (6 h): 81.8 IU/L | BUN (6 h): 7 mg/dL | CRE (6 h): 0.2 mg/dL | Ca (6 h): 10.4 mg/dL | Cl (6 h): 108.2 meq/L | DBIL (6 h): 0.01 mg/dL | GLC (6 h): 179.2 mg/dL | IP (6 h): 9.4 mg/dL | K (6 h): 3.5 meq/L | LDH (6 h): 67.6 IU/L | Na (6 h): 140.8 meq/L | PL (6 h): 121.4 mg/dL | RALB (6 h): 2.8 g/dL | TBIL (6 h): 0.052 mg/dL | TC (6 h): 77 mg/dL | TG (6 h): 15.2 mg/dL | TP (6 h): 5.5 g/dL | gamma-GTP (6 h): 1 IU/L

Reference: ChEMBL document CHEMBL3885861, “Open TG-GATES”
